In ChEMBL document CHEMBL3627598, “Synthesis of novel compounds containing morpholine and 5(4H)-oxazolone rings as potent tyrosinase inhibitors” (Bioorg Med Chem, 2015) one finds viability, inhibition and IC50 data, which are given here for six compounds.

Molecules are shown by their SMILES.

The nature of series [1]: Cytotoxicity against mouse B16F10 cells assessed as cell viability at 20 ug/ml incubated for 72 hrs by MTT assay. In kind it is cell-based, B16-F10. The following applies: read-out: Activity. For orientation: Formazan colour is commonly taken as a measure of viable cells.
Series [2] deals with T1, Tyrosinase (Mus musculus) (UniProt P11344).
T1 sequence (whole entry): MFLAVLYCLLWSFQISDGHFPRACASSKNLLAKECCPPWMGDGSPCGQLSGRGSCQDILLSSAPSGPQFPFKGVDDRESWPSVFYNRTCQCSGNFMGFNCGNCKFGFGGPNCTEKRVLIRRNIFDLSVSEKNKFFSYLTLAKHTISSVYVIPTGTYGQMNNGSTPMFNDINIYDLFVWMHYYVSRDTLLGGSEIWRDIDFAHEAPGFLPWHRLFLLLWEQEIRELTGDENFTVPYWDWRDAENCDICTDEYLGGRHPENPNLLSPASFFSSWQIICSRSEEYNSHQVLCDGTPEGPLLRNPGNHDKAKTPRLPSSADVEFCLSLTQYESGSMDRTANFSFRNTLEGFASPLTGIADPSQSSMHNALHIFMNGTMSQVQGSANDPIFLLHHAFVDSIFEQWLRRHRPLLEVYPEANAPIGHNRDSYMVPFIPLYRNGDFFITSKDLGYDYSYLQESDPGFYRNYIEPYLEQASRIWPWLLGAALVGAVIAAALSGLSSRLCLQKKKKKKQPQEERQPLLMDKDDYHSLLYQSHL
Put plainly: Inhibition of tyrosinase in mouse B16F10 cells assessed as reduction of melanin production at 20 ug/ml incubated for 72 hrs. The following applies: B16-F10. It is filed as cell-based.

The target of the next series is T2, Tyrosinase (Agaricus bisporus, UniProt O42713).
T2 sequence (O42713 whole entry): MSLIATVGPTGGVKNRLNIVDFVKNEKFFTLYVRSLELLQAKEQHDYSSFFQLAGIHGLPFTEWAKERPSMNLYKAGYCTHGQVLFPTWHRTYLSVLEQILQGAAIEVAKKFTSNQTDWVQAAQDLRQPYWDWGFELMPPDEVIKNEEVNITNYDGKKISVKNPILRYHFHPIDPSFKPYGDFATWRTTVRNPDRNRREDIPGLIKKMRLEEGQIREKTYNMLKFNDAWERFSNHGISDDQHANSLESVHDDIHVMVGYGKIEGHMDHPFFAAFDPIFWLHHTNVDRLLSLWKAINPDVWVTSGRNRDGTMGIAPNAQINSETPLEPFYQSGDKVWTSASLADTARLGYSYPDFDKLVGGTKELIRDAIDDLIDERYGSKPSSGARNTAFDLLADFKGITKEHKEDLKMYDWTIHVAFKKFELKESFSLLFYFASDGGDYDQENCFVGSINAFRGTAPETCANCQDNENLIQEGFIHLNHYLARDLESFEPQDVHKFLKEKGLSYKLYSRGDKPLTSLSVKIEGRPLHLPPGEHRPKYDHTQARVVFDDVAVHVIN
Briefly: Inhibition of mushroom tyrosinase using L-DOPA as substrate assessed as formation of L-DOPA chrome preincubated for 10 mins followed by addition of substrate measured over 10 mins by […].

The inhibition is the share of the control response that was lost under treatment. In general, IC50 refers to the concentration at which inhibition is half-maximal.

In the case of `O=C1OC(c2ccc(/N=N/c3ccc(N4CCOCC4)cc3)cc2)=N/C1=C/c1ccc(F)cc1Cl`, the viability at 72 h, 20 ug/ml in series [1] is 60.7%. Further, the inhibition in series [2] stood at 32.4%. Further, the IC50 on Tyrosinase was found to be 16 µM.

As for `O=C1OC(c2ccc(/N=N/c3ccc(N4CCOCC4)cc3)cc2)=N/C1=C/c1ccccc1[N+](=O)[O-]`, the viability at 72 h, 20 ug/ml in series [1] was 58.1%. Further, the inhibition in series [2] amounted to 30.7%. The half-inhibitory concentration (IC50) at Tyrosinase turned out to be 20.3 µM.

As to `O=C1OC(c2ccc(/N=N/c3ccc(N4CCOCC4)cc3)cc2)=N/C1=C/c1ccc(Cl)cc1`, the viability at 72 h, 20 ug/ml in series [1] was 61.9%. Further, in series [2], the inhibition came out at 34.4%. Also, the IC50 on Tyrosinase came to 18.9 µM.

Take `O=C1OC(c2ccc(/N=N/c3ccc(N4CCOCC4)cc3)cc2)=N/C1=C/c1ccc(F)cc1`: the viability at 72 h, 20 ug/ml in series [1] worked out at 57.2%. Moreover, the inhibition in series [2] came out at 38.8%. Also, the IC50 on Tyrosinase was 15.8 µM.

Turning to `O=C1OC(c2ccc(/N=N/c3ccc(N4CCOCC4)cc3)cc2)=N/C1=C/c1ccccc1`, in series [1], the viability at 72 h, 20 ug/ml was found to be 62.9%. Moreover, in series [2], the inhibition worked out at 40.1%. Also, the IC50 at Tyrosinase worked out at 17.2 µM.

Turning to `O=C1OC(c2ccc(/N=N/c3ccc(N4CCOCC4)cc3)cc2)=N/C1=C/c1cccs1`, in series [1], the viability at 72 h, 20 ug/ml was determined as 56.7%. Also, the inhibition in series [2] was 31.2%. In addition, at Tyrosinase, the half-inhibitory concentration (IC50) was 13.7 µM.
